Legend:
[1] = Kinetics of thioester cleavage (release of thiophenolate, absorbance at 410 nm); settings: pH 7.0, 25° C.
Experimental: To identify the optimal nitrogen nucleophile for a thioester, kinetic studies were performed on a model chromogenic thioester: AcGlySC6H4-p-NO2. The rate of release of the thiophenolate anion was monitored by measuring the change in absorbance at 410 nm (Scheme 1). Nitrogen nucleophiles with conjugate-acid pKa values ranging from 4.6 to 10.6 (Table 1) were used in the experiments. The logarithmic values of the second-order rate constants (k2) of the unprotonated primary amines were plotted against the pKa values of their conjugate acids to yield the Brønsted plot shown in FIG. 2A. The data were fitted to the equation^[26]: log k2=log(AB)+(β+β′)pKa−log(A10^βpK^a+B10^β′pK^a) (1) In eq 1, A and B are constants, β′ is the slope of the former part of the Brønsted plot, and β is the slope of the latter part.
Kinetics of thioester cleavage: AcGlySC6H4-p-NO2 was dissolved in anhydrous acetonitrile to a concentration of 0.45 mM and used immediately. Amine solutions (except CF3CH2NH2.HCl) were prepared by dissolving the amine hydrochloride salts in 0.10 M sodium phosphate buffer at pH 7.0 to a concentration of 0.15 M. Reaction mixtures were prepared in a 1,1-mL volume and equilibrated at 25° C. All reactions contained […] acetonitrile. The ionic strength of each reaction mixture was I=0.22-0.25. All reactions were carried out with a large excess of amine and followed pseudo-first-order kinetics. In a cuvette containing 0.10 M sodium phosphate buffer at pH 7.0 (967 μL), amine solution (0.15 M, 100 μL) was added and the absorbance at 410 nm was adjusted to zero. The thioester (33 μL of a 0.45 mM solution in acetonitrile) was then added to the cuvette, and the absorbance at 410 nm was monitored with time (ε=11,230 M^−1cm^−1 for p-nitrothiophenolate anion). […] This value is likely to be lower in an aqueous buffer, such that the ionization of the p-nitrothiophenol product is virtually complete in all our assays. The final concentration of the thioester in the reaction was 13.64 μM and the final concentration of the amines (except CF3CH2NH2.HCl) was 13.64 mM. Each reaction was performed in triplicate. The reactions were allowed to go to completion, and the t1/2 was determined from the kinetic trace. The t1/2 was corrected by subtracting the t1/2 for hydrolysis from the observed value. Pseudo-first-order rate constants were calculated by using the equation k1=0.693/t1/2. Second-order rate constants were obtained by dividing each observed first-order rate constant by the concentration of free amine. Logarithmic values of second-order rate constants were plotted against the pKa values of the conjugate acids of the respective amines to yield a Brønsted plot.
Using a higher buffer concentration was not ideal, as that would increase the ionic strength to a much value much larger than that in other reaction mixtures. To overcome these problems, the reaction with CF3CH2NH2 was carried out using 40.92 mM CF3CH2NH2.HCl and allowing the pH of the reaction mixture to decrease to 5.8. The observed t12 was corrected by subtracting the t12 for hydrolysis at pH 5.8. The second-order rate constant was calculated by accounting for the concentration of free amine at pH 5.8, and the resulting value was used in the Brønsted plot. The first-order rate constant thus obtained was not compared to those for the other nucleophiles.

[2] = biological target: T1, Met(−1)RNase A-Gly-mxe intein thioester (UniProt P20533+P61823); assay: On-resin cleavage of the intein fusion protein thioester; settings: on chitin resin
T1 construct: made in house; host or cells: E. coli BL21 (DE3), plasmid pJK01
T1 sequence (P61823+P20533 with tags, fused parts or gaps): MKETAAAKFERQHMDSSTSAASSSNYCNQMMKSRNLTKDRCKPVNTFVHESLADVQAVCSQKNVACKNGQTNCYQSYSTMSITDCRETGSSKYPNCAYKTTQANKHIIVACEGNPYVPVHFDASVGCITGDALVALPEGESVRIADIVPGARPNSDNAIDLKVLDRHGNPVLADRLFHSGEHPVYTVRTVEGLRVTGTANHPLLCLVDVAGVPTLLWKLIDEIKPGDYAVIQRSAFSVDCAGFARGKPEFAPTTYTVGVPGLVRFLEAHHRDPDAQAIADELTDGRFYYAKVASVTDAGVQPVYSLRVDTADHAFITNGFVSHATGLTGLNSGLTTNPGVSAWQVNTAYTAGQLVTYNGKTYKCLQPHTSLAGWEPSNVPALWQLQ
Text: Next, we sought to use our bifunctional reagents to install an azido group at the C terminus of a model protein. As our protein, we chose bovine pancreatic ribonuclease (RNase A), which has been the object of much seminal work in protein chemistry and has been manipulated previously with expressed protein ligation. RNase A has valine as its C-terminal residue. A valine residue at the C terminus of a target protein is known to have a debilitating effect on the cleavage efficiency of protein-intein thioesters. To avert this problem, we inserted a glycine residue between the C terminus of RNase A and the intein. The resulting Met(−1)RNase A-Gly-mxe intein-chitin-binding domain fusion protein (MW ˜36 kDa) was produced in E. coli, and the cell lysate was loaded onto chitin resin. Azides 1 and 2 were used to induce the on-resin cleavage of the fusion protein. […] The purity of the azido-RNase A (even upon elution from the chitin column) was apparent from SDS-PAGE analysis (FIG. 3A); the integrity of the azido-RNase A was verified by using MALDI-TOF mass spectrometry (FIG. 3B). This procedure produced an overall yield of ˜1 mg of purified azido-RNase A per liter of E. coli culture. […]

[N-]=[N+]=NCCNC(=O)CNN [azide 1, H2NNHCH2CONHCH2CH2N3]
rate constants (k2 and k1) for thioester cleavage [1]: indistinguishable from those of the α-hydrazino acetyl group | efficiency of cleaving the protein-intein thioester [2]: much more effective than azide 2

From patent publication US8242058B2, “Reagents and methods for appending functional groups to proteins” (Wisconsin Alumni Research Foundation, priority 2006, dated 2012)
